Where two headings read alike, the source gives them in different places.
Experiments:
P. aeruginosa biofilms = details: for Average CFU: 24 h treatment of 24 h old biofilm
From the text: (§1) The wild-type P. aeruginosa PAO1 used for the planktonic and biofilm experiments was obtained from the Pseudomonas Genetic Stock Center (www.pseudomonas.med.ecu.edu, strain PAO0001). The wild-type S. aureus 8325-4, used for planktonic and biofilm experiments was described by Novick, R. P. 1967. The following bacteria were obtained from the Department of Clinical Microbiology, Copenhagen University Hospital, Denmark: E. coli (wild type and clinical ESBL producing strains), S. aureus (wild type and clinical MRSA strains) and Klebsiella pneumoniae (clinical ESBL producing strain).
For plating, Luria broth (LB) medium mix with 2.0% agar was used. For all experiments including bacterial biofilms, AB minimal medium supplemented with glucose was used except if different is mentioned. AB minimal medium consists of: A standard buffer system consisting of (NH4)2SO4 (15.1 mM), Na2HPO4.2H2O (33.7 mM) and KH2PO4 (22.0 mM. NaCl (0.051 M), MgCl2 (1 mM), CaCl2 (0.1 mM), and trace metals (100 μl/liter). The trace metal solution contained CaSa4.2H2O (200 mg/liter), FeSO4.7H2O (200 mg/liter), MnSO4.H2O (20 mg/liter), CuSO4.5H2O (20 mg/liter), ZnSO4.7H2O (20 mg/liter), CoSO4.7H2O (10 mg/liter), NaMoO4.H2O, and H3BO3 (5 mg/liter).
(§2) Two types of biofilm setups were used, micropore filter assay and a microtitter plate assay: • The microtitter plate assay is based on biofilms growing in microtiter dishes with AB minimal medium containing 0.3 mM glucose as described by O′ toole et al (1999). • The Micro-pore assay is based on biofilms growing on a micropore filter on AB minimal agar plates. The micropore filters are placed on top of an AB minimal agar plate. Bacteria are propagated on the micro-pore filters as spots of 20 μl bacterial suspension and incubated at 37° C. For a biofilm to develop the filters were transferred to a fresh AB minimal agar plate once after 24 hours. The biofilm were mature and ready for use after 48 hours incubation in total, at 37° C. Planktonic cultures were grown in shake flasks at 37° C. The microtitter plate assay for biofilm tolerance to sodium diacetate was assessed by exchanging the AB minimal medium of 24 h old biofilms with AB minimal medium supplemented with different concentrations of sodium diacetate.
The antimicrobial effect was determined by plating the treated and non-treated biofilm. To ensure complete removal of all adhering bacteria the wells of the microtitter plate were washed mechanically.

[1] = test system: Klebsiella pneumoniae (clinical ESBL producing strain) biofilm; details: dry sodium diacetate, same method as example 3
From the text: as §1, §2
(§3) To elucidate the efficacy of dry sodium diacetate on microbial biofilms of P. aeruginosa. Bacteria were propagated on a micropore filter for biofilm formation. The Micro-pore filters were placed on top of an LB-agar plate. Bacteria were spread on the micro-pore filters as spots and incubated at 37° C. For a biofilm to develop the filters were transferred to a fresh LB-agar plate once after 24 hours. The biofilm were mature and ready for use after 48 hours incubation in total, at 37° C.
(§4) After 48 hours NaHAc2 was added on top of the biofilm spot, either directly or between two pieces of gauze. The control was plain gauze. All treatments were incubated for 24 hours. The effect was evaluated by replication of the micro pore filter after treatment. The endpoint was growth or no growth of bacteria after the treatment.

[2] = test system: S. aureus (wild type and clinical MRSA strains) biofilm; details: dry sodium diacetate, same method as example 3
From the text: as §1, §2, §3, §4

[3] = test system: P. aeruginosa mature biofilm
From the text: as §1, §2, §3, §4

[4] = test system: E. coli (wild type and clinical ESBL producing strains) biofilm
From the text: as §1, §2, §3, §4

[5] = test system: bacterially infected chronic wounds; details: dressings with 0.2 mg/cm^2 or less on surface, with negative pressure wound therapy; initial results
Protocol: To elucidate the clinical potential of sodium diacetate in wound care human clinical trials are being performed in a hospital setting to test the efficacy of dressings incorporating sodium diacetate on bacterially infected chronic wounds.
Dressings are used employing 0.2 mg/cm^2 or less of sodium diacetate on the surface of the dressing material. Incorporating smaller amounts of sodium diacetate is tested incrementally. Initial trials are performed using negative pressure wound therapy in combination with dressings incorporating sodium diacetate as described herein. Trials are performed on test subjects having chronic wounds due to infection with for example P. aeruginosa and with reduced immune responses due to for example, drug abuse, diabetes, or obesity.

[6] = 24 hours old static biofilms in AB minimal medium

## CC(=O)O.CC(=O)[O-].[Na+] [sodium diacetate]
P. aeruginosa biofilms; 0.25% NaHAc2 (w/v)
  Average CFU: 1.15E+09 CFU
P. aeruginosa biofilms; 0.50% NaHAc2 (w/v)
  Average CFU: 3.12E+08 CFU
P. aeruginosa biofilms; 0.75% NaHAc2 (w/v)
  Average CFU: 9.63E+07 CFU
P. aeruginosa biofilms; 1.00% NaHAc2 (w/v)
  Average CFU: 8.05E+06 CFU
P. aeruginosa biofilms; 1.25% NaHAc2 (w/v)
  Average CFU: 1.96E+05 CFU
P. aeruginosa biofilms; 1.50% NaHAc2 (w/v)
  Average CFU: 1.98E+03 CFU
P. aeruginosa biofilms; 1.75% NaHAc2 (w/v)
  Average CFU: 0 CFU
P. aeruginosa biofilms; 2.00% NaHAc2 (w/v)
  Average CFU: 0 CFU
P. aeruginosa biofilms; 2.25% NaHAc2 (w/v)
  Average CFU: 0 CFU
P. aeruginosa biofilms; 2.50% NaHAc2 (w/v)
  Average CFU: 0 CFU
P. aeruginosa biofilms; 2.75% NaHAc2 (w/v)
  Average CFU: 0 CFU
P. aeruginosa biofilms; 3% NaHAc2 (w/v)
  Average CFU: 0 CFU
P. aeruginosa biofilms; [6]
  concentration at which an effect of the salt is already seen: 0.25 % (W/V)
  concentration giving complete killing of the biofilm bacteria: 1.75 % (W/V)
P. aeruginosa biofilms; 24 hours old static biofilms in AB minimal medium, listed as NaHAc2
  concentration giving complete killing of the biofilm bacteria: ≥ 1.75 % (W/V)
P. aeruginosa biofilms; even the lowest concentrations of NaHAc2
  killing of biofilm: partial killing
[1]
  eradication of biofilm infection: completely eradicated
[2]
  eradication of biofilm infection: completely eradicated
[3]; NaHAc2 on top of 48 h biofilm spot, directly or between two pieces of gauze, 24 hours
  growth or no growth of bacteria after treatment: completely eradicates
[3]; treatment 1: dry between gauze
  growth or no growth of bacteria after treatment: complete eradication
[3]; treatment 2: between gauze soaked in wounds buffer
  growth or no growth of bacteria after treatment: complete eradication
[3]; treatment 3: foam soaked in wounds buffer
  growth or no growth of bacteria after treatment: complete eradication
[3]; treatment 4: dry
  growth or no growth of bacteria after treatment: complete eradication
[4]; between gauze soaked in wounds buffer (FIG. 4)
  growth or no growth of bacteria after treatment: complete eradication
[4]; dry between gauze (FIG. 4)
  growth or no growth of bacteria after treatment: complete eradication
[4]; dry sodium diacetate, same method as example 3, wild type and clinical ESBL producing strains
  eradication of biofilm infection: completely eradicated
[4]; foam soaked in wounds buffer (FIG. 4)
  growth or no growth of bacteria after treatment: complete eradication
0.50% NaHAc2 (w/v) in AB minimal media
  Media pH: 5.78
0.75% NaHAc2 (w/v) in AB minimal media
  Media pH: 5.31
1.00% NaHAc2 (w/v) in AB minimal media
  Media pH: 5.09
1.25% NaHAc2 (w/v) in AB minimal media
  Media pH: 4.99
1.50% NaHAc2 (w/v) in AB minimal media
  Media pH: 4.91
1.75% NaHAc2 (w/v) in AB minimal media
  Media pH: 4.86
2.00% NaHAc2 (w/v) in AB minimal media
  Media pH: 4.83
2.25% NaHAc2 (w/v) in AB minimal media
  Media pH: 4.80
2.50% NaHAc2 (w/v) in AB minimal media
  Media pH: 4.78
2.75% NaHAc2 (w/v) in AB minimal media
  Media pH: 4.76
3.00% NaHAc2 (w/v) in AB minimal media
  Media pH: 4.74
AB minimal media (FIG. 1)
  concentration at which the pH value levels out: around 1.5 g/L
At 3 g/L of sodium diacetate (FIG. 1)
  pH of aqueous AB minimal media: ~4.75
[5]
  infections of chronic wounds: eradicated
  wound healing: accelerated

From patent US11376230B2 (priority 2011, dated 2022)
